Assay results taken from patent US7053177B1, “Random peptides that bind to gastro-intestinal tract (GIT) transport receptors and related methods” (Cytogen Corporation, priority 1997, dated 2006).
Peptide text beside a SMILES is read from it. * marks the point of attachment. Dansyl = CN(C)c1cccc2c(S(=O)(=O)*)cccc12

Tested on: P100 membrane fraction of Caco-2 cells
Experiment: Dansylated peptide ELISA: relative binding of PAX2 and HAX42 peptides to P100 fractions (ratio to ZElan021)
Details: ratio to ZElan021 = 1.00
Method: The peptides and proteins were analyzed by a dansylated peptide ELISA method in which 96 well plates were coated overnight at 4° C. with 100 μl/well coating protein (normally 100 μg/ml P100 membrane fraction) in 0.05M carbonate buffer pH9.6. Nonspecific binding was blocked using 200 μl/well, 2% Marvel/PBS for 2 hours at 37° C. prior to incubation with dansylated peptides. The plates were washed three times with PBS/0.05% Tween 20 and after each subsequent incubation step. […] A buffer blank control was included to ensure that background binding to plastic was not due to the antibodies used in the assay system. […] Plates were developed using 75 μl/well Bionostics TMB substrate and incubated for approximately 10 minutes. The developing reaction was stopped using Bionostics Red Stop solution (25 μl/well), and the optical density of the plates was read at 650 nm. […]

Row | SMILES | Binding value at 50 μg/ml (PAX2 peptides, first column) | Binding value at 20 μg/ml (PAX2 peptides, first column) | Binding value at 50 μg/ml (PAX2 peptides, second column) | Binding value at 20 μg/ml (PAX2 peptides, second column) | Binding value at 20 μg/ml (HAX42 peptides) | Binding value at 50 μg/ml (HAX42 peptides, first column) | Binding value at 50 μg/ml (HAX42 peptides, second column)
1 | CC(C)C[C@H](NC(=O)[C@H](CCCNC(=N)N)NC(=O)[C@H](CCCNC(=N)N)NC(=O)[C@H](CC(N)=O)NC(=O)[C@H](Cc1c[nH]cn1)NC(=O)[C@H](CO)NC(=O)[C@H](CO)NC(=O)[C@H](Cc1c[nH]cn1)NC(=O)[C@H](CCCCN)NC(=O)[C@H](C)NC(=O)[C@H](CC(N)=O)NC(=O)[C@@H](NC(=O)[C@@H](N)CCCCNS(=O)(=O)c1cccc2c(N(C)C)cccc12)[C@@H](C)O)C(=O)N[C@@H](CCCNC(=N)N)C(=O)N[C@H](C(=O)N[C@@H](CCCNC(=N)N)C(=O)N[C@@H](CO)C(=O)N[C@@H](CCCNC(=N)N)C(=O)N1CCC[C@H]1C(=O)N[C@@H](CC(N)=O)C(N)=O)[C@@H](C)O [ZElan032] (H-K(Dansyl)TNAKHSSHNRRLRTRSRPN-NH2) | 0.95 |  |  |  |  |  | 
2 | CC(C)C[C@H](NC(=O)[C@H](CCCNC(=N)N)NC(=O)[C@H](CCCNC(=N)N)NC(=O)[C@H](CC(N)=O)NC(=O)[C@H](Cc1c[nH]cn1)NC(=O)[C@H](CO)NC(=O)[C@H](CO)NC(=O)[C@H](Cc1c[nH]cn1)NC(=O)[C@H](CCCCN)NC(=O)[C@H](C)NC(=O)[C@H](CC(N)=O)NC(=O)[C@@H](NC(=O)[C@@H](N)CCCCNS(=O)(=O)c1cccc2c(N(C)C)cccc12)[C@@H](C)O)C(=O)N[C@@H](CCCNC(=N)N)C(=O)N[C@H](C(=O)N[C@@H](CCCNC(=N)N)C(N)=O)[C@@H](C)O [ZElan033] (H-K(Dansyl)TNAKHSSHNRRLRTR-NH2) | 0.80 | 0.35 | 0.66 |  |  |  | 
3 | CC(C)C[C@H](NC(=O)[C@H](CCCNC(=N)N)NC(=O)[C@H](CCCNC(=N)N)NC(=O)[C@H](CC(N)=O)NC(=O)[C@H](Cc1c[nH]cn1)NC(=O)[C@H](CO)NC(=O)[C@H](CO)NC(=O)[C@@H](N)CCCCNS(=O)(=O)c1cccc2c(N(C)C)cccc12)C(=O)N[C@@H](CCCNC(=N)N)C(=O)N[C@H](C(=O)N[C@@H](CCCNC(=N)N)C(N)=O)[C@@H](C)O [ZElan035] (H-K(Dansyl)SSHNRRLRTR-NH2) | 0.81 | 0.12 | 0.77 | 0.43 |  |  | 
4 | C[C@H](NC(=O)[C@H](CC(N)=O)NC(=O)[C@@H](NC(=O)[C@@H](N)CCCCNS(=O)(=O)c1cccc2c(N(C)C)cccc12)[C@@H](C)O)C(=O)N[C@@H](CCCCN)C(=O)N[C@@H](Cc1c[nH]cn1)C(=O)N[C@@H](CO)C(=O)N[C@@H](CO)C(=O)N[C@@H](Cc1c[nH]cn1)C(=O)N[C@@H](CC(N)=O)C(N)=O [ZElan055] (H-K(Dansyl)TNAKHSSHN-NH2) | 1.10 | 0.99 | 0.59 | 0.73 |  |  | 
5 | CC(C)C[C@H](NC(=O)[C@H](CCCNC(=N)N)NC(=O)[C@H](CCCNC(=N)N)NC(=O)[C@@H](N)CCCCNS(=O)(=O)c1cccc2c(N(C)C)cccc12)C(=O)N[C@@H](CCCNC(=N)N)C(=O)N[C@H](C(=O)N[C@@H](CCCNC(=N)N)C(=O)N[C@@H](CO)C(=O)N[C@@H](CCCNC(=N)N)C(=O)N1CCC[C@H]1C(=O)N[C@@H](CC(N)=O)C(N)=O)[C@@H](C)O [ZElan056] (H-K(Dansyl)RRLRTRSRPN-NH2) | 0.21 | 0.00 | 0.21 | 0.16 |  |  | 
6 | CC(C)C[C@H](NC(=O)[C@H](CCCNC(=N)N)NC(=O)[C@H](CCCNC(=N)N)NC(=O)[C@@H](N)CCCCNS(=O)(=O)c1cccc2c(N(C)C)cccc12)C(=O)N[C@@H](CCCNC(=N)N)C(=O)N[C@H](C(=O)N[C@@H](CCCNC(=N)N)C(=O)N[C@@H](CO)C(=O)N[C@@H](CCCNC(=N)N)C(N)=O)[C@@H](C)O [ZElan057] (H-K(Dansyl)RRLRTRSR-NH2) | 0.56 | 0.08 | 0.25 |  |  |  | 
7 | CC(C)C[C@H](NC(=O)[C@H](CCCNC(=N)N)NC(=O)[C@H](CCCNC(=N)N)NC(=O)[C@@H](N)CCCCNS(=O)(=O)c1cccc2c(N(C)C)cccc12)C(=O)N[C@@H](CCCNC(=N)N)C(=O)N[C@H](C(=O)N[C@@H](CCCNC(=N)N)C(N)=O)[C@@H](C)O [ZElan058, H2N-K(dns)RRLRTR-CONH2] (H-K(Dansyl)RRLRTR-NH2) | 0.47 | 0.05 | 0.16 |  |  |  | 
8 | CC[C@H](C)[C@H](NC(=O)[C@H](C)NC(=O)[C@H](CO)NC(=O)[C@@H]1CCCN1C(=O)[C@H](CCCNC(=N)N)NC(=O)[C@H](CCCNC(=N)N)NC(=O)[C@H](CCCNC(=N)N)NC(=O)[C@H](CC(N)=O)NC(=O)[C@H](Cc1ccccc1)NC(=O)[C@@H](NC(=O)[C@H](CCCCN)NC(=O)[C@H](CCCNC(=N)N)NC(=O)CNC(=O)[C@@H](NC(=O)[C@H](CO)NC(=O)[C@H](CC(N)=O)NC(=O)CNC(=O)[C@H](CC(N)=O)NC(=O)CNC(=O)[C@H](CS)NC(=O)[C@H](CS)NC(=O)[C@H](CC(N)=O)NC(=O)[C@H](Cc1ccc(O)cc1)NC(=O)[C@H](CC(=O)O)NC(=O)CNC(=O)[C@@H](N)CCCCNS(=O)(=O)c1cccc2c(N(C)C)cccc12)[C@@H](C)O)C(C)C)C(=O)N1CCC[C@H]1C(=O)N[C@H](C(N)=O)[C@@H](C)O [ZElan061] (H-K(Dansyl)GDYNCCGNGNSTGRKVFNRRRPSAIPT-NH2) |  |  |  |  | 0.20 | 0.60 | 0.38
9 | CC(C)C[C@H](NC(=O)[C@H](C)NC(=O)[C@H](Cc1c[nH]cn1)NC(=O)[C@H](CC(=O)O)NC(=O)[C@H](CO)NC(=O)[C@@H](N)CCCCNS(=O)(=O)c1cccc2c(N(C)C)cccc12)C(=O)NCC(=O)N[C@H](C(=O)N[C@@H](CC(N)=O)C(=O)N[C@@H](CC(C)C)C(=O)N[C@@H](CCCNC(=N)N)C(=O)N[C@@H](CO)C(=O)N[C@@H](CC(=O)O)C(=O)N[C@@H](CC(N)=O)C(=O)N[C@@H](C)C(=O)N[C@@H](CCCCN)C(=O)N[C@@H](CCC(=O)O)C(=O)N1CCC[C@H]1C(=O)NCC(N)=O)[C@@H](C)O [ZElan062] (H-K(Dansyl)SDHALGTNLRSDNAKEPG-NH2) |  |  |  |  | 0.11 | 0.42 | 0.34
10 | CC(C)[C@H](NC(=O)[C@H](CCCCN)NC(=O)[C@H](CCCNC(=N)N)NC(=O)[C@@H](N)CCCCNS(=O)(=O)c1cccc2c(N(C)C)cccc12)C(=O)N[C@@H](Cc1ccccc1)C(=O)N[C@@H](CC(N)=O)C(=O)N[C@@H](CCCNC(=N)N)C(=O)N[C@@H](CCCNC(=N)N)C(=O)N[C@@H](CCCNC(=N)N)C(=O)N1CCC[C@H]1C(=O)N[C@@H](CO)C(N)=O [ZElan065] (H-K(Dansyl)RKVFNRRRPS-NH2) |  |  |  |  | 0.00 | 0.54 | 0.30
11 | CN(C)c1cccc2c(S(=O)(=O)NCCCC[C@H](N)C(=O)N[C@@H](CC(N)=O)C(=O)N[C@@H](CCCNC(=N)N)C(=O)N[C@@H](CCCNC(=N)N)C(=O)N[C@@H](CCCNC(=N)N)C(=O)N3CCC[C@H]3C(=O)N[C@@H](CO)C(N)=O)cccc12 [ZElan067, H2N-K(dns)NRRRPS-CONH2] (H-K(Dansyl)NRRRPS-NH2) |  |  |  |  | 0.08 | 0.52 | 0.40
12 | CC(C)C[C@H](NC(=O)[C@H](C)NC(=O)[C@H](Cc1c[nH]cn1)NC(=O)[C@H](CC(=O)O)NC(=O)[C@H](CO)NC(=O)[C@@H](N)CCCCNS(=O)(=O)c1cccc2c(N(C)C)cccc12)C(=O)NCC(=O)N[C@H](C(=O)N[C@@H](CC(N)=O)C(=O)N[C@@H](CC(C)C)C(=O)N[C@@H](CCCNC(=N)N)C(=O)N[C@@H](CO)C(=O)N[C@@H](CC(=O)O)C(=O)N[C@@H](CC(N)=O)C(=O)N[C@@H](C)C(=O)N[C@@H](CCCCN)C(=O)N[C@@H](CCC(=O)O)C(=O)N1CCC[C@H]1C(=O)NCC(=O)N[C@@H](CC(=O)O)C(=O)N[C@@H](Cc1ccc(O)cc1)C(=O)N[C@@H](CC(N)=O)C(=O)N[C@@H](CS)C(=O)N[C@@H](CS)C(=O)NCC(=O)N[C@@H](CC(N)=O)C(=O)NCC(=O)N[C@@H](CC(N)=O)C(=O)N[C@@H](CO)C(=O)N[C@H](C(N)=O)[C@@H](C)O)[C@@H](C)O [ZElan070] (H-K(Dansyl)SDHALGTNLRSDNAKEPGDYNCCGNGNST-NH2) |  |  |  |  | 0.59 | 0.97 | 0.39
13 | CC(C)C[C@H](NC(=O)[C@H](CC(N)=O)NC(=O)[C@@H](N)CCCCNS(=O)(=O)c1cccc2c(N(C)C)cccc12)C(=O)N[C@@H](CCCNC(=N)N)C(=O)N[C@@H](CO)C(=O)N[C@@H](CC(=O)O)C(=O)N[C@@H](CC(N)=O)C(=O)N[C@@H](C)C(=O)N[C@@H](CCCCN)C(=O)N[C@@H](CCC(=O)O)C(=O)N1CCC[C@H]1C(=O)NCC(=O)N[C@@H](CC(=O)O)C(=O)N[C@@H](Cc1ccc(O)cc1)C(=O)N[C@@H](CC(N)=O)C(=O)N[C@@H](CS)C(=O)N[C@@H](CS)C(=O)NCC(=O)N[C@@H](CC(N)=O)C(=O)NCC(=O)N[C@@H](CC(N)=O)C(=O)N[C@@H](CO)C(=O)N[C@H](C(=O)NCC(=O)N[C@@H](CCCNC(=N)N)C(=O)N[C@@H](CCCCN)C(=O)N[C@H](C(=O)N[C@@H](Cc1ccccc1)C(=O)N[C@@H](CC(N)=O)C(=O)N[C@@H](CCCNC(=N)N)C(N)=O)C(C)C)[C@@H](C)O [ZElan071] (H-K(Dansyl)NLRSDNAKEPGDYNCCGNGNSTGRKVFNR-NH2) |  |  |  |  |  | 0.89 | 0.75
